Consider 4 molecules from patent US6790603B2, “Compositions for the storage of platelets” (Bioenergy, Inc., priority 1999, dated 2004).

The subject of data set [1] is platelets. Nature of the data set: P-selectin expression in stored platelets, basal and after 10 nM thrombin challenge (flow cytometry). The format is cell-based. As for the experimental part:
A basal measurement of spontaneous activation is obtained and the cells are then challenged with an agonist. The difference between cells challenged to activate minus the basal measurement is a measure of cell function. In the preferred embodiment, the agonist is 10 nM thrombin. P-selectin expression in response to a challenge of 10 nM thrombin is a highly accurate and quantitative method to assess platelet function using flow cytometry techniques. A monoclonal antibody to the platelet GPIIbIIIa receptor (Becton-Dickinson) is conjugated with green fluorescence, marking all platelets with a green detection. […] About 10,000 to 25,000 platelets are counted and measured for P-selectin expression and the % positive cells are defined as activated platelets that express P-selectin. Platelets that are activated are not capable of being activated a second time; that is, they are essentially nonfunctional. It was proposed years ago by Dawson (Transfusion 21:215-218. (1981)) that ribose at the concentration of 15 mM is beneficial to stored whole blood. It was assumed that ribose functioned by raising the energy levels of the cells, as discussed at length in U.S. Pat. No. 6,159,942. […] Platelet function was assessed by ATP secretion, platelet aggregation, P-selectin expression, platelet count and pH. Platelet function was measured every 24 hours. […]
For orientation: Flow cytometry measures light scatter and fluorescence of single cells or particles in a stream.

Data set [2] concerns platelets. The data set is described as follows: ATP secretion in response to 10 nM thrombin (luciferin/luciferase assay). The format is cell-based. From the text:
The platelet dense granules shown in FIG. 1 contain ATP which is released in response to platelet agonists such as thrombin, collagen or adenosine diphosphate (ADP). The release reaction of ATP from platelets serves as another method to monitor platelet function. There are many methods to analyze ATP. A convenient method is the well known luciferin/luciferase reaction (Sigma Chemical, St. Louis). This assay is derived from the light producing system of the firefly. The substrate luciferin, in the presence of ATP, is cleaved by the enzyme luciferase, accompanied by the emission of light. The emitted light is measured by a photomultiplier tube
Platelet suspensions containing about 350 units in 4 μl were mixed with 10 μl luciferin/luciferase reagent. An agonist is injected. As the platelet dense granules release ATP, the bioluminescent reaction occurs, which is measured by the photomultiplier tube. […] The rate of reaction is recorded and as platelet function decays, the rate decays. Total ATP was measured by lysing the cells with Triton and determining ATP content. The results as presented in Table III are expressed as intact rate of ATP secretion.

The subject of data set [3] is platelets. The data set is described as follows: Platelet aggregation on thrombin challenge (optical density / aggregometer). The format is cell-based. As for the experimental part:
As a second measure of the effect of ribose on platelets, platelet aggregation was estimated. Platelet aggregation is a crucial function of platelet activity; platelets that cannot aggregate are essentially nonfunctional. Platelets were stored as above.
The optical density of the suspension was measured before and after thrombin challenge.
Platelet aggregation was measured with a platelet aggregometer (Chronolog, Inc., Irvine, Calif.). Platelet-rich, turbid suspensions were stirred in a cuvette and the transmittance of light through the sample relative to a platelet poor blank is recorded. When a aggregating agent is added, activated platelets with exposed fibrinogen receptors (GPIIbIIIa) are brought in close contact with each other in a medium containing calcium and fibrinogen and form increasingly large platelet aggregates, accompanied by a decrease in turbidity. The change in optical density was then translated by the instrument to percent aggregation. Simple stated, as platelets clump, more light passes through the cuvette.

In data set [4] the test system is bacteria. Nature of the data set: Bacterial contamination of platelet storage solution (colony counts in Petri dishes). Particulars: D-Ribose added to storage cocktail. As to the method:
Bacterial contamination was measured by colony counts in standard Petri dishes that had been inculated with the test solution. It is assumed that the millimolar glucose concentration in most platelet storage solutions contributes to the growth of bacteria. As noted above, Murphy (Table II) discloses a glucose-free solution for the storage of platelets. Elimination of reduction of glucose levels from millimolar to micromolar concentrations has a profound effect in reducing bacterial contamination, however, platelet function at five days, as measured by ATP secretion and P-selectin expression, was poor.

For data set [5], the system named is platelets. The data set is described as follows: Preservation of function in stored platelets (ATP secretion, aggregation, P-selectin expression, pH, platelet count). In kind it is cell-based. As for the experimental part: It is known that other pentoses may have similar effects as D-Ribose, either through intracellular conversion to ribose or a direct effect. Ribulose-5-phosphate, xylulose-5-phosphate and xylitol were tested for preservation of activity in stored platelets according to the methods of examples 1 to 6.
Ribulose-5-phosphate was purchased from Sigma Chemical (St. Louis) and added to the standard CPD platelet storage solution. The following parameters of function were tested: ATP secretion in response to 10 nM thrombin; platelet aggregation; P-selectin expression in response to thrombin challenge; pH change; and platelet count. Platelet concentrate bags were obtained from a transfusion center within hours of collection. Aliquots were sampled from the platelet bags and concentrations of ribulose-5-phosphate were added for a final concentration from 1.5 mM down to 150 pM. Controls without ribulose-5-phosphate were analyzed for comparison. Samples were analyzed every 24 hours for platelet function.

For data set [6] the following is noted: 30 grams of ribose each day; cited from earlier work.
Data set [7] concerns whole blood. The following applies: 15 mM ribose; cited from earlier work.

SMILES strings stand for the structures.

In the case of `O=C[C@H](O)[C@H](O)[C@H](O)CO` [D-Ribose], the “Preservation of function (P-selectin expression test)” value in data set [1] (150 pM D-Ribose, five days storage) is listed as “ineffective”. Also, the “% positive (activated) cells” value in data set [1] (153 nM D-Ribose, three days storage, basal) is on record as 5%. Further, the “Preservative effect on ATP secretion” value in data set [2] (1.5 nM D-Ribose) was “no preservative effect”. Also, the “Rise in total ATP content of treated cells” value in data set [2] (150 nM D-Ribose) is “more than 10%”. In addition, the Toxicity to platelets result in data set [2] (15 mM D-Ribose) is “toxic to platelets”. Further, the “Mean ATP secretion activity, % of baseline” value in data set [2] (optimal D-Ribose (150 nM), day 7) was above 80%. The “Platelet samples with aggressive aggregation response” value in data set [3] (day 3, 10 nM thrombin) was “all five”. Also, the “Platelet samples responding (aggregation)” value in data set [3] (day five, thrombin) was “four out of five”. The “Platelet samples able to aggregate” value in data set [3] (day seven, thrombin) was “three out of five”. Also, the “Aggregation on thrombin challenge” value is “no aggregation” in data set [3] (platelets stored in 150 pM D-Ribose), “strong aggregation” in data set [3] (platelets stored in 150 nM D-Ribose), “very weak effect” in data set [3] (platelets stored in 15 μM D-Ribose) and “no aggregation” in data set [3] (platelets stored in 1.5 mM D-Ribose). In addition, in data set [4], the Bacterial contamination result was “lower incidence of bacterial contamination”. Also, the “Platelet function compared with storage in presence of glucose” value in data set [5] (150 nM D-Ribose, glucose eliminated or reduced to micromolar) is reported as “similar”. For the same molecule, in data set [6], the Tolerability of ingestion entry was “no ill effects”. In addition, in data set [7], the “Effect on stored whole blood” value is reported as “beneficial”.
Regarding `O=C(CO)[C@H](O)[C@H](O)COP(=O)(O)O` [ribulose-5-phosphate, Ribulose-5-phosphate], the “Platelet function parameters versus controls” value in data set [5] (1.5 mM down to 150 pM, analyzed every 24 hours) is reported as “No difference from controls”.
`OC[C@@H](O)[C@H](O)[C@@H](O)CO` [xylitol]: in data set [5] (trends inconsistent), the “Preservation of platelet function” value is recorded as “some benefit”.
Consider `O=C(CO)[C@@H](O)[C@H](O)COP(=O)(O)O` [xylulose-5-phosphate, Xylulose-5-phosphate], for which the Platelet aggregation result in data set [3] (five days storage) is listed as “weak”.
